Where “and” joins values, the source holds several entries; their conditions need not be identical. Identical values can stand only once.

The target of test [1] is T1, human GPR119 (Homo sapiens, UniProt Q8TDV5).
T1 construct: host or cells: U2OS
In words: beta-arrestin functional assay (DiscoverX PathHunter U2OS hGPR119 beta-arrestin cells). The note with it: for EC50: read-out: Human B-arrestin Functional EC50; for Emax: U2OS, read-out: Intrinsic Activity* (B-arrestin). Format: cell-based. The method, then:
GPR119 agonist activity was also determined with a cell-based assay utilizing DiscoverX PathHunter β-arrestin cell assay technology and their U2OS hGPR119 β-arrestin cell line (DiscoverX Cat # 93-0356C3). In this assay, agonist activation is determined by measuring agonist-induced interaction of β-arrestin with activated GPR119. A small, 42 amino acid enzyme fragment, called ProLink was appended to the C-terminus of GPR119. Arrestin was fused to the larger enzyme fragment, termed EA (Enzyme Acceptor). Activation of GPR119 stimulates binding of arrestin and forces the complementation of the two enzyme fragments, resulting in formation of a functional β-galactosidase enzyme capable of hydrolyzing substrate and generating a chemiluminescent signal.
Specifically, U2OS hGPR119 β-arrestin cells (DiscoverX 1×10^7/mL) are removed from cryopreservation and diluted in growth medium (Minimum essential medium (MEM; Gibco Cat # 11095-080), 10% heat inactivated fetal bovine serum (HIFBS; Sigma Cat # F4135-100), […] sodium pyruvate (Sigma Cat # S8636), 500 microg/mL G418 (Sigma Cat # G8168) and 250 microg/mL Hygromycin B (Invitrogen Cat # 10687-010). The cell concentration was adjusted to 1.66×10^5 cells/mL and 30 mLs of this suspension was added to a T-175 flask and incubated at 37 degrees Celsius in a humidified environment in 5% carbon dioxide. After 48 hours, the cells were removed from the T-175 flask with enzyme-free cell dissociation buffer (Gibco cat # 13151-014), centrifuged at 800×g and then re-suspended in plating medium (Opti-MEM I (Invitrogen/BRL Cat # 31985-070) and 2% charcoal dextran treated fetal bovine serum (CD serum; HyClone Cat # SH30068.03). The cell concentration was adjusted to 2.5×10^5 cells/mL with plating medium and 10 microL of this cell suspension (2500 cells) was added to each well of a white Greiner 384-well low volume assay plate (VWR cat # 82051-458) and the plates were incubated at 37 degrees Celsius in a humidified environment in 5% carbon dioxide.
After 16 hours (overnight) the assay plates were removed from the incubator and varying concentrations of each compound to be tested (diluted in assay buffer (1×HBSS+CaCl2+MgCl2 (Gibco Cat # 14025-092), 20 mM HEPES pH 7.0 (Gibco Cat # 15630-080) and 0.1% BSA (Sigma Cat # A9576)) were added to the assay plate wells in a volume of 2.5 microL (final DMSO concentration was 0.5%). After a 90 minute incubation at 37 degrees Celsius in a humidified environment in 5% carbon dioxide, 7.5 microL of Galacton Star β-galactosidase substrate (Path Hunter Detection Kit (DiscoveRx Cat # 93-0001); prepared as described in the manufacturers assay protocol) was added to each well of the assay plate. The plates were incubated at room temperature and after 60 minutes, changes in the luminescence were read with an Envision 2104 multilabel plate reader at 0.1 seconds per well. EC50 determinations were made from an agonist-response curves analyzed with a curve fitting program using a 4-parameter logistic dose response equation.
T1 sequence (P32121 whole entry partner, one chain of several): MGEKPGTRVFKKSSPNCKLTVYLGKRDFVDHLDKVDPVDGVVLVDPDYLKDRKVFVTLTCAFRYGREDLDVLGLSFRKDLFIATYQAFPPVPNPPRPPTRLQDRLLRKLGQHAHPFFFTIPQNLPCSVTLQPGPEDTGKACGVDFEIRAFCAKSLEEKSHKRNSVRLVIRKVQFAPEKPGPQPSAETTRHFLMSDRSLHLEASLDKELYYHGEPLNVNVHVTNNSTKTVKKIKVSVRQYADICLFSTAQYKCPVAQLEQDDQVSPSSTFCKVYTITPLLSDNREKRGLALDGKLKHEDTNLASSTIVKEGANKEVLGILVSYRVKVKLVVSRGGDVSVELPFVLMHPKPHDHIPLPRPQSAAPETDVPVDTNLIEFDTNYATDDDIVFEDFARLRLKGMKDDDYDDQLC

The target in test [2] is T2, human GPR119 (Homo sapiens, UniProt Q8TDV5).
T2 construct: host or cells: HEK293-CRE beta-lactamase cells
T2 sequence (Q8TDV5 1-335): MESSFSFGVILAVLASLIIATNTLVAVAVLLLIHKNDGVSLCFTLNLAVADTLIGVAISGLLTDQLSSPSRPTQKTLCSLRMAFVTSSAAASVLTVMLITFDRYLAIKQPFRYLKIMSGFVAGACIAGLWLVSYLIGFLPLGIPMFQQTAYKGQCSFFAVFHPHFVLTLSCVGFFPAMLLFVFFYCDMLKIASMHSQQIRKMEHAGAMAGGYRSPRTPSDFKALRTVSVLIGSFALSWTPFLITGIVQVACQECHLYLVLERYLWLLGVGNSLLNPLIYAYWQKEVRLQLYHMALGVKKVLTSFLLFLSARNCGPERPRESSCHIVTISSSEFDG
In words: beta-lactamase functional assay (hGPR119 HEK293-CRE beta-lactamase reporter). The format is cell-based. The note with it: for EC50: read-out: Human B-lactamase Functional EC50; for Emax: read-out: Intrinsic Activity* (B-lactamase). As to the method:
The assay for GPR119 agonists utilizes a cell-based (hGPR119 HEK293-CRE beta-lactamase) reporter construct where agonist activation of human GPR119 is coupled to beta-lactamase production via a cyclic AMP response element (CRE). GPR119 activity is then measured utilizing a FRET-enabled beta-lactamase substrate, CCF4-AM (Live Blazer FRET-B/G Loading kit, Invitrogen cat # K1027). Specifically, hGPR119-HEK-CRE- beta-lactamase cells (Invitrogen 2.5×10^7/mL) were removed from liquid nitrogen storage, and diluted in plating medium (Dulbecco's modified Eagle medium high glucose (DMEM; Gibco Cat # 11995-065), 10% heat inactivated fetal bovine serum (HIFBS; Sigma Cat # F4135), 1×MEM Nonessential amino acids (Gibco Cat # 15630-080), 25 mM HEPES pH 7.0 (Gibco Cat # 15630-080), 200 nM potassium clavulanate (Sigma Cat # P3494). The cell concentration was adjusted using cell plating medium and 50 microL of this cell suspension ([…]) was added into each well of a black, clear bottom, poly-d-lysine coated 384-well plate (Greiner Bio-One cat# 781946) and incubated at 37 degrees Celsius in a humidified environment containing 5% carbon dioxide. After 4 hours the plating medium was removed and replaced with 40 microL of assay medium (Assay medium is plating medium without potassium clavulanate and HIFBS). Varying concentrations of each compound to be tested was then added in a volume of 10 microL (final DMSO≦0.5%) and the cells were incubated for 16 hours at 37 degrees Celsius in a humidified environment containing 5% carbon dioxide. Plates were removed from the incubator and allowed to equilibrate to room temperature for approximately 15 minutes. 10 microL of 6×CCF4/AM working dye solution (prepared according to instructions in the Live Blazer FRET-B/G Loading kit, Invitrogen cat # K1027) was added per well and incubated at room temperature for 2 hours in the dark. Fluorescence was measured on an EnVision fluorimetric plate reader, excitation 405 nm, emission 460 nm/535 nm. EC50 determinations were made from agonist-response curves analyzed with a curve fitting program using a 4-parameter logistic dose-response equation.

The mark [3] stands for this setting: U2OS hGPR119 beta-arrestin cells, 90 min incubation, one value per run.
The mark [4] stands for this setting: percent of maximal activity relative to standard GPR119 agonist (WO2005121121) at 10 microM, one value per run.
The mark [5] stands for this setting: marked **: curve extrapolated to 100%, relative to standard GPR119 agonist at 10 microM.

For the compound `Cc1c(O[C@H]2CCN(C(=O)OC3(C)CC3)C[C@H]2F)ncnc1N1CCn2nccc21` (racemic) [Example 3, 1-Methylcyclopropyl (3R,4S)-4-{[6-(2,3-dihydro-1H-imidazo[1,2-b]pyrazol-1-yl)-5-methylpyrimidin-4-yl]oxy}-3-fluoropiperidine-1-carboxylate (racemic)], the EC50 at human GPR119 [1] (setting [3]) was 74 nM and 92 nM. Moreover, on human GPR119 [1] (setting [4]), the Emax came out at 83% and the “Intrinsic Activity* (B-arrestin)” value is listed as 68%.

In the case of `Cc1c(O[C@H]2CCN(C(=O)OC(C)C)C[C@H]2F)ncnc1N1CCn2nccc21` (racemic) [Example 4, Isopropyl (3R,4S)-4-{[6-(2,3-dihydro-1H-imidazo[1,2-b]pyrazol-1-yl)-5-methylpyrimidin-4-yl]oxy}-3-fluoropiperidine-1-carboxylate (racemic)], the EC50 at human GPR119 [1] (setting [3]) was determined as 53 nM. Further, the Emax at human GPR119 [1] (setting [4]) stood at 38%.

Turning to `Cc1c(O[C@@H]2CCN(C(=O)OC3(C)CC3)C[C@@H]2F)ncnc1N1CCn2nccc21` (single isomer, unassigned) [Example 5], on human GPR119 [1] (setting [3]), the EC50 is 56 nM and 49 nM. Also, at human GPR119 [1] (setting [4]), the “Intrinsic Activity* (B-arrestin)” value is 83% and 55%.

With `Cc1c(O[C@H]2CCN(C(=O)OC3(C)CC3)C[C@H]2F)ncnc1N1CCn2nccc21` (single isomer, unassigned) [Example 6], the 50% effective concentration (EC50) at human GPR119 [1] (setting [3]) was 47 nM and 121 nM. Besides, at human GPR119 [1] (setting [4]), the “Intrinsic Activity* (B-arrestin)” value is 87% and 65%.

In the case of `Cc1c(OC2CCN(C(=O)OC(C)C)CC2)ncnc1N1CCn2nccc21` [Example 1, Isopropyl 4-{[6-(2,3-dihydro-1H-imidazo[1,2-b]pyrazol-1-yl)-5-methylpyrimidin-4-yl]oxy}piperidine-1-carboxylate], the EC50 on human GPR119 [2] (curve was extrapolated to 100% to calculate the EC50 (**), one value per run) is 8190 nM and 4570 nM; on human GPR119 [2] (hGPR119 HEK293-CRE beta-lactamase cells, 16 h incubation, one value per run) it was 612 nM and 386 nM and 1150 nM and 1440 nM. Further, the Emax on human GPR119 [2] (setting [5]) is 100%; at human GPR119 [2] (setting [4]) it was 110%. Further, the “Intrinsic Activity* (B-lactamase)” value at human GPR119 [2] (setting [4]) was 94% and 96%.

Turning to `Cc1c(OC2CCN(C(=O)OC3(C)CC3)CC2)ncnc1N1CCn2nccc21` [Example 2, 1-Methylcyclopropyl 4-{[6-(2,3-dihydro-1H-imidazo[1,2-b]pyrazol-1-yl)-5-methylpyrimidin-4-yl]oxy}piperidine-1-carboxylate], the Emax at human GPR119 [1] (setting [5]) is 100%. On human GPR119 [1] (curve was extrapolated to 100% to calculate the EC50 (**)), the EC50 is 313 nM.

For orientation: EC50 means the concentration at which the effect is half-maximal.

(Values after patent publication US20120295845A1, “IMIDAZO-PYRAZOLES AS GPR119 INHIBITORS” (Pfizer Inc, priority 2009, published 2012).)
